For assay [1], the system named is Coccidioides posadasii Δcts2/Δard1/Δcts3.
Assay [2] shares this test system. It counts as cell-based.

Consider `CC/C(=C(\c1ccccc1)c1ccc(OCCN(C)C)cc1)c1ccccc1` [Tamoxifen], for which, in assay [1], the “fungal growth inhibitory properties” value was “strong fungal growth inhibitory properties”. In addition, the “hit strength in screen” value in assay [2] is “strong positive hit”.

For the origin of these results see patent publication US11446353B2, “Compositions and methods for the treatment of fungal infections” (priority 2014, dated 2022).
